Measurements published in ChEMBL document CHEMBL1201862, “PubChem BioAssay data set” (2004).
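Dose response: 5 concentrations. Exposure: 48 h. Format: 96-well plates. Endpoint: linear interpolation; highest concentration if not reached. At the GI50, growth is halved.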 The source made the active and inactive calls. Cut-off read from the data, not from the text of the source: active = GI50 up to about 1.1 µM and inactive = higher.

How the values were obtained:
Assay in all cases: growth of human tumour cells (NCI), 48 h
[1] = test system: OVCAR-8
[2] = test system: IGROV-1
[3] = test system: KM12
[4] = test system: RXF 393
[5] = test system: UACC-257
[6] = test system: SK-MEL-28
[7] = test system: DU-145
[8] = test system: K562
[9] = test system: MDA-MB-231
[10] = test system: NCI-H23
[11] = test system: T47D
[12] = test system: Hs-578T
[13] = test system: NCI-H522
[14] = test system: HT-29
[15] = test system: MCF7
[16] = test system: CAKI-1
[17] = test system: SF-295
[18] = test system: COLO 205
[19] = test system: NCI/ADR-RES
[20] = test system: Malme-3M

Row | Compound | GI50 [1] | GI50 [2] | GI50 [3] | GI50 [4] | GI50 [5] | GI50 [6] | GI50 [7] | GI50 [8] | GI50 [9] | GI50 [10] | GI50 [11] | GI50 [12] | GI50 [13] | GI50 [14] | GI50 [15] | GI50 [16] | GI50 [17] | GI50 [18] | GI50 [19] | GI50 [20]
1 | COc1ccc(C(=O)c2ccc(-n3c4ccccc4c4ccc5c(c43)C(=O)C=CC5=O)cc2)cc1 | 1.81 µM (inactive) | 2.61 µM (inactive) | 3.68 µM (inactive) | 0.845 µM (active) | 2.54 µM (inactive) | 2.99 µM (inactive) | 3.1 µM (inactive) | 0.676 µM (active) | 1.94 µM (inactive) | 1.7 µM (inactive) | 1.06 µM (active) | 1.69 µM (inactive) | 0.217 µM (active) | 1.06 µM (active) | 0.855 µM (active) | 0.164 µM (active) | 5.43 µM (inactive) | 2.89 µM (inactive) | 2.62 µM (inactive) | 
2 | NC(=O)NC(=O)CCC(NS(=O)(=O)c1ccccc1)C(=O)NC(N)=O (stereo unspecified) | > 100 µM (inactive) | > 100 µM (inactive) | > 100 µM (inactive) |  | > 100 µM (inactive) | > 100 µM (inactive) | > 100 µM (inactive) | > 100 µM (inactive) | > 100 µM (inactive) | > 100 µM (inactive) | > 100 µM (inactive) | > 100 µM (inactive) | > 100 µM (inactive) | > 100 µM (inactive) | > 100 µM (inactive) | > 100 µM (inactive) | > 100 µM (inactive) | > 100 µM (inactive) | > 100 µM (inactive) | > 100 µM (inactive)
3 | CN(C)CCNc1ccc2ncn3c4ccc(O)cc4c(=O)c1c23 | 0.646 µM (active) | 1.09 µM (active) | 1.95 µM (inactive) | 0.617 µM (active) | 5.74 µM (inactive) | 4.53 µM (inactive) | 0.315 µM (active) | 0.762 µM (active) | 1.67 µM (inactive) | 0.614 µM (active) | 10.2 µM (inactive) | 1.18 µM (inactive) | 0.409 µM (active) | 1.06 µM (active) | 0.0832 µM (active) | 0.224 µM (active) | 1.39 µM (inactive) | 0.698 µM (active) | 3 µM (inactive) | 2.64 µM (inactive)
4 | NC1=C(Cl)C(=O)c2c(O)ccc(O)c2C1=O | 3.82 µM (inactive) | 5.83 µM (inactive) | 2.92 µM (inactive) | 7.45 µM (inactive) | 1.6 µM (inactive) | 2.39 µM (inactive) | 2.2 µM (inactive) | 22.4 µM (inactive) | 5.73 µM (inactive) | 2.05 µM (inactive) | 7.24 µM (inactive) | 8.3 µM (inactive) | 14.6 µM (inactive) | 2.54 µM (inactive) | 1.55 µM (inactive) | 16.5 µM (inactive) | 2.1 µM (inactive) | 1.69 µM (inactive) | 3.61 µM (inactive) | 0.279 µM (active)
5 | COc1ccc(C(SC2C(O)C(CO)OC2n2ccc(=O)[nH]c2=O)(c2ccccc2)c2ccc(OC)cc2)cc1 (stereo unspecified) | 19.1 µM (inactive) | 17.7 µM (inactive) | 15.8 µM (inactive) | 18.1 µM (inactive) | 16.1 µM (inactive) | 21.8 µM (inactive) | 18.4 µM (inactive) | 31.6 µM (inactive) | 16.1 µM (inactive) | 17.7 µM (inactive) | 16.6 µM (inactive) | 20.9 µM (inactive) | 14.7 µM (inactive) | 17.6 µM (inactive) | 17.1 µM (inactive) | 30.4 µM (inactive) | 7.57 µM (inactive) | 17.7 µM (inactive) | 18.9 µM (inactive) | 20.7 µM (inactive)
6 | CC1CCCC2(CC[N+](C)(CCC[N+](C)(C)C)CC2)C1 (stereo unspecified) | > 100 µM (inactive) | > 100 µM (inactive) | > 100 µM (inactive) | > 100 µM (inactive) | > 100 µM (inactive) | > 100 µM (inactive) | > 100 µM (inactive) | > 100 µM (inactive) | > 100 µM (inactive) |  | > 100 µM (inactive) | > 100 µM (inactive) | > 100 µM (inactive) | > 100 µM (inactive) | > 100 µM (inactive) | > 100 µM (inactive) | > 100 µM (inactive) | > 100 µM (inactive) | > 100 µM (inactive) | > 100 µM (inactive)
7 | CCC(NC(C)c1ccccc1)C(=O)c1ccc(OCc2ccccc2)c(OCc2ccccc2)c1 (stereo unspecified) | > 100 µM (inactive) | > 100 µM (inactive) | > 100 µM (inactive) | > 100 µM (inactive) |  | > 100 µM (inactive) | > 100 µM (inactive) | 4.81 µM (inactive) | > 100 µM (inactive) | > 100 µM (inactive) | > 100 µM (inactive) | > 100 µM (inactive) | > 100 µM (inactive) | > 100 µM (inactive) | > 100 µM (inactive) | > 100 µM (inactive) | > 100 µM (inactive) | > 100 µM (inactive) | > 100 µM (inactive) | > 100 µM (inactive)
